# Patent US7846747B2, “Biocatalytic solgel microarrays” (Rensselaer Polytechnic Institute, priority 2001, dated 2010)
# Tested on: MCF7 breast cancer cells
smiles,measurement,value
O=P1(N(CCCl)CCCl)NCCCO1 (stereo not shown) [cyclophosphamide],number of dead cells and ratio of dead to live cells,significant increase in the number of dead cells
